Experimental data as given in US7947732B2, “Therapeutic substituted chlorocyclopentanols” (Allergan, Inc., priority 2007, dated 2011).
Where a name gives a salt, the structure may show the parent alone. Read-outs that look alike come from different tables or passages of the source.

How the values were obtained:
EP2 [1] = molecular target: T1, EP2 (Homo sapiens, UniProt P43116); assay: EP2 binding (KI)
Source text: (§1) U.S. patent application Ser. No. 11/553,143, filed on Oct. 26, 2006, now issued as U.S. Pat. No. 7,427,685 incorporated by reference herein, describes the methods used to obtain the in vitro data in the tables below.

EP2 [2] = molecular target: T1, EP2; assay: EP2 flipr functional assay; type: cell-based
Source text: as §1

EP4 [3] = molecular target: T2, EP4 (Homo sapiens, UniProt P35408); assay: EP4 binding (KI)
T2 sequence (P35408 whole entry): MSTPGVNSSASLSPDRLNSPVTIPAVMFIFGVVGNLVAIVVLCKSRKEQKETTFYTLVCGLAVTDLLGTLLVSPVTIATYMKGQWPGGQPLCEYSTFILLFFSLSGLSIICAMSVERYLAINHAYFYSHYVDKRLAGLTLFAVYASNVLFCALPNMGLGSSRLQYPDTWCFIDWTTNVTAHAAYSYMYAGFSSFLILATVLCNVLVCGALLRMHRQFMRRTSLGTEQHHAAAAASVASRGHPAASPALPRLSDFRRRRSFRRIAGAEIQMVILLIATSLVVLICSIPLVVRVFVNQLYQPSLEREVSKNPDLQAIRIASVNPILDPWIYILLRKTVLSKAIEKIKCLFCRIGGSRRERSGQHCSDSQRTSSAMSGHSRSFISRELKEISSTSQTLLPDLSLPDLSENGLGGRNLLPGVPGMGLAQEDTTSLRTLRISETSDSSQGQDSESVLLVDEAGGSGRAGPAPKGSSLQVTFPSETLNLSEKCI
Source text: as §1

EP2 [4] = molecular target: T1, EP2; assay: EP2 cAMP assay; type: cell-based
Source text: as §1

EP4 [5] = molecular target: T2, EP4; assay: EP4 flipr functional assay; type: cell-based; conditions: read-out: EP4 data filpr EC50
Source text: as §1

hEP3A = molecular target: T3, hEP3A (Homo sapiens, UniProt P43115); assay: Other receptors functional EC50: hEP3A; type: cell-based
T3 sequence (P43115 1-390): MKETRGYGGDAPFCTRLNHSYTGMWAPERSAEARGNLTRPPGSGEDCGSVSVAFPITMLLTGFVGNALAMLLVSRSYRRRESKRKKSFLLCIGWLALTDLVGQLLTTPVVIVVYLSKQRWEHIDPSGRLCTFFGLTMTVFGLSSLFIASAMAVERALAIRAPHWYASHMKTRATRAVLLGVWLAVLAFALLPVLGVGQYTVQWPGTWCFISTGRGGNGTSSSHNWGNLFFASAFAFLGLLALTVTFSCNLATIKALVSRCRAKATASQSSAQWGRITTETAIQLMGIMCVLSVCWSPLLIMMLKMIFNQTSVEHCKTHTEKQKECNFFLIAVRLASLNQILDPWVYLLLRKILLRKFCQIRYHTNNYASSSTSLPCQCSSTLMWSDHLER
Source text: as §1

normotensive dogs [6] = assay: Ocular surface hyperemia in normotensive dogs; type: in vivo; design: scale not given here
Source text: (§2) U.S. Pat. No. 7,091,231 describes the methods used for these in vivo tests.

normotensive dogs [7] = assay: Intraocular pressure in normotensive dogs; type: in vivo; conditions: once daily for 5 days
Source text: as §2

hDP = molecular target: T4, hDP (Homo sapiens, UniProt Q13258); assay: Other receptors functional EC50: hDP; type: cell-based
T4 sequence (Q13258 1-359): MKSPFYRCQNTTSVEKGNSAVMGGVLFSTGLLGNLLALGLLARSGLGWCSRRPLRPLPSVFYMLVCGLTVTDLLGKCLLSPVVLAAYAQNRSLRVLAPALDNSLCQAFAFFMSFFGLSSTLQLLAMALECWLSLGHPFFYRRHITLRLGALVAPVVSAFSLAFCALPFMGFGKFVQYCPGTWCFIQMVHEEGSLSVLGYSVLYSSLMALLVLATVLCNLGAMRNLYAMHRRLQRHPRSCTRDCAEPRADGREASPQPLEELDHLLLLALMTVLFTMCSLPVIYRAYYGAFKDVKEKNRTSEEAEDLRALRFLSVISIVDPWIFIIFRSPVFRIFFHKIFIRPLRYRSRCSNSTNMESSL
Source text: as §1

hTP = molecular target: T5, hTP (Homo sapiens, UniProt P21731); assay: Other receptors functional EC50: hTP; type: cell-based
T5 sequence (P21731 1-343): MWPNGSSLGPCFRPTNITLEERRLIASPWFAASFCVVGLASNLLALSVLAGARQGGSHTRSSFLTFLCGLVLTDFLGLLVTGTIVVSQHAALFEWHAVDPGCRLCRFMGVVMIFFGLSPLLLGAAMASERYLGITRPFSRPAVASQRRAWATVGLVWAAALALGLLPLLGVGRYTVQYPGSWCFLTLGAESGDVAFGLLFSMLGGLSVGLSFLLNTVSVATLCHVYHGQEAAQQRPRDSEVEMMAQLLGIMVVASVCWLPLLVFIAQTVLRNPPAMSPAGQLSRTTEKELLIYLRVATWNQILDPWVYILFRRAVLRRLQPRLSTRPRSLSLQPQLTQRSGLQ
Source text: as §1

[8] = 0.001%, once daily for 5 days, at 50 h

T1 sequence (P43116 whole entry): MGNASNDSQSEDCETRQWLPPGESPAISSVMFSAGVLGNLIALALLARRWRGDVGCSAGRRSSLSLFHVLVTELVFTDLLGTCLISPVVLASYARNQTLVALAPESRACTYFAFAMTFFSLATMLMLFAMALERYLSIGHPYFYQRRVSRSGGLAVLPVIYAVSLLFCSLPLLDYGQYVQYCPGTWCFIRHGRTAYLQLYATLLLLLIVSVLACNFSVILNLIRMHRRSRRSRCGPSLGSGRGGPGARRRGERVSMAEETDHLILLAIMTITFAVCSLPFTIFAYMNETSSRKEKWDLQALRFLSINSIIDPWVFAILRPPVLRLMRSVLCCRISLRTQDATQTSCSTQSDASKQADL

`O=C(O)c1ccc(CCC[C@@H]2[C@@H](CNc3cc(Cl)cc(Cl)c3)[C@H](O)C[C@H]2Cl)s1` [drawing 6] was tested, and the Ki (EP2 [1]) was 0.0015 µM, the EC50 (EP2 [2]) was 0.02 µM and the Ki (EP4 [3]) was 0.678 µM. It also gave an EC50 (EP2 [4]) of 90 pM, an EC50 (EP4 [5]) of 5.58 µM and an EC50 (hEP3A) of 7.14 µM.
In the case of `O=C(O)c1ccc(CCC[C@@H]2[C@@H](CCc3cc(Cl)nc(Cl)c3)[C@H](O)C[C@H]2Cl)s1` [11b, 5-(3-((1R,2R,3R,5R)-5-chloro-2-(2-(2,6-dichloropyridin-4-yl)ethyl)-3-hydroxycyclopentyl)propyl)-thiophene-2-carboxylic acid], the “maximum ocular surface hyperemia (OSH) score” value (normotensive dogs [6]; 0.001%, once daily for 4 days, at 74 h) is reported as 1.9.
In the case of `O=C(O)CCCCCC[C@@H]1[C@@H](CCc2cc(Cl)cc(Cl)c2)[C@H](O)C[C@H]1Cl` [7-{(1R,2R,3R,5R)-5-Chloro-2-[2-(3,5-dichloro-phenyl)-ethyl]-3-hydroxy-cyclopentyl}-heptanoic acid], the “maximum ocular surface hyperemia (OSH) score” value (normotensive dogs [6]; 0.01%, once daily for 5 days, at 74 h) is reported as 0.8.
With `O=C(O)c1ccc(CCC[C@@H]2[C@@H](C[S+]([O-])c3cc(Cl)cc(Cl)c3)[C@H](O)C[C@H]2Cl)s1` (stereo partly drawn) [5-(3-((1R,2R,3R,5R)-5-chloro-2-((3,5-dichlorophenylsulfinyl)methyl)-3-hydroxycyclopentyl)propyl)thiophene-2-carboxylic acid] the “maximum ocular surface hyperemia (OSH) score” value (normotensive dogs [6]; 0.005%, once daily for 5 days, at 30 h) was 1.4, the “maximum intraocular pressure (IOP) decrease from baseline” value (normotensive dogs [7]; 0.005%, at 4 h) was 3.1 mmHg and the inhibition in vivo at 0.005 % (normotensive dogs [7]; Canis lupus familiaris, 0.005%, at 4 h, read-out: maximum intraocular pressure (IOP) decrease from baseline) was 21%.
In the case of `O=C(O)c1ccc(CCC[C@@H]2[C@@H](CCc3cc(Cl)cc(Cl)c3)[C@H](O)C[C@H]2Cl)s1` [5-(3-((1R,2R,3R,5R)-5-chloro-2-(3,5-dichlorophenethyl)-3-hydroxycyclopentyl)propyl)thiophene-2-carboxylic acid], the “maximum ocular surface hyperemia (OSH) score” value (normotensive dogs [6]; 0.0001%, once daily for 5 days, at 74 h) is reported as 0.8, the “maximum ocular surface hyperemia (OSH) score” value (normotensive dogs [6]; 0.0005%, once daily for 5 days, at 50 h) is reported as 1.75 and the “maximum ocular surface hyperemia (OSH) score” value (normotensive dogs [6]; [8]) is reported as 1.8. The “maximum ocular surface hyperemia (OSH) score” value (normotensive dogs [6]; 0.01%, once daily for 5 days, at 26 h) was 2.5.
For `CC(C)OC(=O)c1ccc(CCC[C@@H]2[C@@H](CCc3cc(Cl)cc(CO)c3)[C@H](O)C[C@H]2Cl)s1` [Isopropyl 5-(3-((1R,2R,3R,5R)-5-chloro-2-(3-chloro-5-(hydroxymethyl)phenethyl)-3-hydroxycyclopentyl)propyl)thiophene-2-carboxylate], the “maximum ocular surface hyperemia (OSH) score” value (normotensive dogs [6]; 0.001%, once daily for 5 days, at 26 h) was 0.9.
In the case of `CCN(CC)CCOC(=O)c1ccc(CCC[C@@H]2[C@@H](CCc3cc(Cl)cc(Cl)c3)[C@H](O)C[C@H]2Cl)s1` [2-(Diethylamino)ethyl 5-(3-((1R,2R,3R,5R)-5-chloro-2-(3,5-dichlorophenethyl)-3-hydroxycyclopentyl)propyl)thiophene-2-carboxylate], the “maximum ocular surface hyperemia (OSH) score” value (normotensive dogs [6]; 0.001%, once daily for 5 days, at 28 h) is reported as 1.8, the “maximum intraocular pressure (IOP) decrease from baseline” value (normotensive dogs [7]; 0.001%, at 78 h) is reported as 6.9 mmHg and the inhibition in vivo at 0.001 % (normotensive dogs [7]; Canis lupus familiaris, 0.001%, at 78 h, read-out: maximum intraocular pressure (IOP) decrease from baseline) is reported as 47%.
`O=C(O)c1ccc(CCC[C@@H]2[C@@H](C[S+]([O-])c3cc(Cl)cc(Cl)c3)[C@H](O)C[C@H]2Cl)s1` (some centres unmarked) [drawing 8] was tested, and the Ki (EP4 [3]) was over 1 µM.
`O=C(O)c1ccc(CCC[C@@H]2[C@@H](CSc3cc(Cl)cc(Cl)c3)[C@H](O)C[C@H]2Cl)s1` [5-(3-((1R,2R,3R,5R)-5-chloro-2-((3,5-dichlorophenylthio)methyl)-3-hydroxycyclopentyl)propyl)-thiophene-2-carboxylic acid] was tested, and the “maximum ocular surface hyperemia (OSH) score” value (normotensive dogs [6]; 0.01%, once daily for 5 days, at 52 h) was 1.7, the “maximum intraocular pressure (IOP) decrease from baseline” value (normotensive dogs [7]; 0.01%, at 6 h) was 6.3 mmHg and the inhibition in vivo at 0.01 % (normotensive dogs [7]; Canis lupus familiaris, 0.01%, at 6 h, read-out: maximum intraocular pressure (IOP) decrease from baseline) was 35%.
Compound `O=C(O)c1ccc(CCC[C@@H]2[C@@H](CSc3cc(F)cc(F)c3)[C@H](O)C[C@H]2Cl)s1` has an EC50 (hDP) of 9.69 µM and an EC50 (hTP) of 5.31 µM.
`O=C(O)c1ccc(CCC[C@@H]2[C@@H](CCc3cc(Cl)cc(CO)c3)[C@H](O)C[C@H]2Cl)s1` [11c, 5-(3-((1R,2R,3R,5R)-5-chloro-2-(3-chloro-5-(hydroxymethyl)phenethyl)-3-hydroxycyclopentyl)propyl)thiophene-2-carboxylic acid] was tested, and the “maximum ocular surface hyperemia (OSH) score” value (normotensive dogs [6]; [8]) was 0.8.
With `CCN(CC)CCOC(=O)c1ccc(CCC[C@@H]2[C@@H](CCc3cc(Cl)cc(Cl)c3)[C@H](O)C[C@H]2Cl)s1` [2-(Diethylamino)ethyl 5-(3-((1R,2R,3R,5R)-5-chloro-2-(3,5-dichlorophenethyl)-3-hydroxycyclopentyl)propyl)thiophene-2-carboxylate hydrochloride] the “maximum ocular surface hyperemia (OSH) score” value (normotensive dogs [6]; 0.0005%, once daily for 5 days, at 98 h) was 1.25, the “maximum intraocular pressure (IOP) decrease from baseline” value (normotensive dogs [7]; 0.0005%, at 28 h) was 5.3 mmHg and the inhibition in vivo at 0.0005 % (normotensive dogs [7]; Canis lupus familiaris, 0.0005%, at 28 h, read-out: maximum intraocular pressure (IOP) decrease from baseline) was 33%.
With `O=C(O)c1ccc(CCC[C@@H]2[C@@H](CNc3cc(Cl)cc(Cl)c3)[C@H](O)C[C@H]2Cl)s1` [5-(3-((1R,2S,3R,5R)-5-chloro-2-((3,5-dichlorophenylamino)methyl)-3-hydroxycyclopentyl)propyl)thiophene-2-carboxylic acid] the “maximum ocular surface hyperemia (OSH) score” value (normotensive dogs [6]; 0.001%, once daily for 5 days, at 76 h) was 1.5, the “maximum intraocular pressure (IOP) decrease from baseline” value (normotensive dogs [7]; 0.001%, at 6 h) was 2.6 mmHg and the inhibition in vivo at 0.001 % (normotensive dogs [7]; Canis lupus familiaris, 0.001%, at 6 h, read-out: maximum intraocular pressure (IOP) decrease from baseline) was 18%.
